In series [1] the target is over expressed HSD17β13 in HEK293S cells (Homo sapiens (Human), UniProt Q7Z5P4). The experiment in a line: In Vitro 17bHSD13 Cell Assay. Format: cell-based. The conditions noted are these: HEK293S cells over expressing HSD17β13; estradiol to estrone conversion, 18 h, LC-MS/MS; read-out: 17bHSD1713 Cell assay IC50. Put shortly:
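HEK293S cells overexpressing HSD17β13 convert estradiol to estrone; product read by LC-MS/MS (APCI, positive MRM) as AUC ratio estrone/(estrone+estradiol). Effect normalised between DMSO and maximal inhibition by a known inhibitor control; IC50 from curve fit.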

Series [2] addresses over expressed HSD17β9 in HEK293S cells (Homo sapiens (Human), UniProt Q92781). The experiment in a line: In Vitro 17bHSD9 Cell Assay. Format: cell-based. Particulars: HEK293S cells over expressing HSD17β9; retinol to retinal conversion, 18 h, LC-MS/MS; read-out: 17bHSD9 Cell assay IC50. The essentials:
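HEK293S cells overexpressing HSD17β9 were plated at 10K cells/well in DMEM + 10% FBS and cultured 18 h. Retinol-to-retinal conversion in media was quantified by LC-MS/MS (MRM) as retinal/(retinal + retinol). IC50 was fitted after normalisation to DMSO and full inhibition by a reference inhibitor.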

The subject of series [3] is human hepatocytes. The experiment in a line: Assay A: Metabolic Stability in Human Hepatocytes. Format: in vitro ADME. The conditions noted are these: cryopreserved human hepatocytes, 10^6 viable cells/mL, 1 μM compound, 37° C. Put shortly: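 Cryopreserved hepatocytes (10^6 viable cells/mL) at 37° C with 1 μM test compound, sampled 0.5–120 min and quenched in MeCN. Parent measured by LC-MS/MS; CLint (μL/min/10^6 cells) from the slope of ln(parent concentration) vs time.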

The target of series [4] is CYP2C9 (Homo sapiens (Human), UniProt P11712). The experiment in a line: Assay B: Cytochrome P450 Inhibition 2C9.
Sequence of CYP2C9 (P11712 whole entry): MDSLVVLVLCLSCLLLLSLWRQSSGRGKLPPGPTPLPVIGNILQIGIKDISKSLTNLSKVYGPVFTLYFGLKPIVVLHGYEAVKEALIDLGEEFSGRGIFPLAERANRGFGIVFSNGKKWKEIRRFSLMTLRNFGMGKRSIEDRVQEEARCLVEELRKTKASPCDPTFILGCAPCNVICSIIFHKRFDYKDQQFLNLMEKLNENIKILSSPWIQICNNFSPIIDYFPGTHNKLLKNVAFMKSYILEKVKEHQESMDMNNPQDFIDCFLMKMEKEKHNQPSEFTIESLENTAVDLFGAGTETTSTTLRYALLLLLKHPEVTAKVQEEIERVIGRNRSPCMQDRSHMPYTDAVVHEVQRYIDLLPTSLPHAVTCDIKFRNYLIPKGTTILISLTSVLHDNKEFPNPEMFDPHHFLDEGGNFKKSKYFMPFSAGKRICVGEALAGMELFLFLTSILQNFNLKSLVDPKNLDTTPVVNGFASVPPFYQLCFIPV

The values below come from patent US20250011311A1, “AMIDO HETEROAROMATIC COMPOUNDS” (AstraZeneca AB, priority 2022, published 2025).

Sequence of over expressed HSD17β13 in HEK293S cells (Q7Z5P4 20-300): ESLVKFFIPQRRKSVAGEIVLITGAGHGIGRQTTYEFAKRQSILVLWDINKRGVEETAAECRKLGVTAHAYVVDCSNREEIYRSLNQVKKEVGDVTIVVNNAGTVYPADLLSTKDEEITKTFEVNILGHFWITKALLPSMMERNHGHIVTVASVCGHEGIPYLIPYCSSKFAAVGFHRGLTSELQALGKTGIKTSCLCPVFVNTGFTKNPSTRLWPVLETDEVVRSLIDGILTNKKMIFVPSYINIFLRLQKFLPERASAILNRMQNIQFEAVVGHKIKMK
Sequence of over expressed HSD17β9 in HEK293S cells (Q92781 whole entry): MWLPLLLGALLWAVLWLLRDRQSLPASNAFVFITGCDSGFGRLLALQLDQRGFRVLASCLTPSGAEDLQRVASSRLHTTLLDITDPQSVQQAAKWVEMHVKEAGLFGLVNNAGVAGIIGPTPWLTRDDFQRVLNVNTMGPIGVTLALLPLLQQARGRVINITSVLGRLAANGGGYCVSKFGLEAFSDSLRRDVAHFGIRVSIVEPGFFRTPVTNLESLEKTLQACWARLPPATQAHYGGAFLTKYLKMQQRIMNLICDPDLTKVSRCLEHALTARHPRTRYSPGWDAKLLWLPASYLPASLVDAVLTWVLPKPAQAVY

What is called IC50 is the concentration at which inhibition is half-maximal. Regarding `O=C(c1noc(-c2cc(F)c(F)c(O)c2F)n1)N1CCN(CCOc2ccc(Br)cn2)CC1` [Example 69, (4-(2-((5-Bromopyridin-2-yl)oxy)ethyl)piperazin-1-yl)(5-(2,4,5-trifluoro-3-hydroxyphenyl)-1,2,4-oxadiazol-3-yl)methanone], the IC50 in series [1] was determined as 0.11 µM; in series [2], 21.9 µM; in series [4], 2.4 µM. Moreover, the “Assay A: Human Heps Met Clint GMean CLint (μl/min/1E6)” value in series [3] is listed as 13.1 μl/min/1E6.
As to `C[C@@H]1C[C@H](C)CN(C(=O)c2nc(-c3cc(F)c(F)c(O)c3F)no2)C1` [Example 111, ((3R,5S)-3,5-Dimethylpiperidin-1-yl)(3-(2,4,5-trifluoro-3-hydroxyphenyl)-1,2,4-oxadiazol-5-yl)methanone], the IC50 in series [1] is 0.1 µM; in series [2] it was above 50 µM; in series [4], 4.9 µM.
With `N#Cc1ccc2c(c1)CN(C(=O)c1noc(-c3cc(F)c(F)c(O)c3F)c1C#N)CC2` [Example 29, 3-(7-Cyano-1,2,3,4-tetrahydroisoquinoline-2-carbonyl)-5-(2,4,5-trifluoro-3-hydroxyphenyl)isoxazole-4-carbonitrile], the IC50 in series [1] was 0.44 µM; in series [2] it was 16.3 µM; in series [4], 0.2 µM. Moreover, the “Assay A: Human Heps Met Clint GMean CLint (μl/min/1E6)” value in series [3] was determined as 16.9 μl/min/1E6.
Regarding `O=C(c1noc(-c2cc(C(F)(F)F)[nH]c(=O)c2)n1)N1CCC(c2ccccc2)C1` (centres unmarked) [Example 9, 4-(3-(3-Phenylpyrrolidine-1-carbonyl)-1,2,4-oxadiazol-5-yl)-6-(trifluoromethyl)pyridin-2(1H)-one], the results for the IC50 in series [1], in series [2] and in series [4] were 5.55 µM, 24.9 µM and 5.7 µM, respectively. In addition, in series [3], the “Assay A: Human Heps Met Clint GMean CLint (μl/min/1E6)” value is 262.2 μl/min/1E6.
For `O=C(c1noc(-c2cc(F)c(F)c(O)c2F)n1)N1CC[C@@H](Oc2ccccc2)C1` [Example 98, (R)-(3-Phenoxypyrrolidin-1-yl)(5-(2,4,5-trifluoro-3-hydroxyphenyl)-1,2,4-oxadiazol-3-yl)methanone], the IC50 was determined as 0.52 µM in series [1], 40.2 µM in series [2] and 0.8 µM in series [4]. In addition, in series [3], the “Assay A: Human Heps Met Clint GMean CLint (μl/min/1E6)” value stood at 26.7 μl/min/1E6.
On to `O=C(c1noc(-c2cc(F)c(F)c(O)c2F)n1)N1CCN(CCCOc2ccc(F)cc2)CC1` [Example 57, (4-(3-(4-Fluorophenoxy)propyl)piperazin-1-yl)(5-(2,4,5-trifluoro-3-hydroxyphenyl)-1,2,4-oxadiazol-3-yl)methanone], for which the values for the IC50 in series [1], in series [2] and in series [4] were 0.14 µM, above 50 µM and 3.7 µM, respectively. Besides, the “Assay A: Human Heps Met Clint GMean CLint (μl/min/1E6)” value in series [3] stood at 9.5 μl/min/1E6.
On to `C[C@@H]1CN(C(=O)c2noc(-c3cc(F)c(F)c(O)c3F)n2)C[C@H](C)O1` [Example 87, ((2R,6S)-2,6-Dimethylmorpholino)(5-(2,4,5-trifluoro-3-hydroxyphenyl)-1,2,4-oxadiazol-3-yl)methanone], for which the IC50 in series [1] was 0.06 µM; in series [2] it was 36.3 µM; in series [4], 15.4 µM. In addition, the “Assay A: Human Heps Met Clint GMean CLint (μl/min/1E6)” value in series [3] was 2.7 μl/min/1E6.
For the compound `O=C(c1noc(-c2cc(F)c(F)c(O)c2F)n1)N1CC[C@H](Oc2ccccc2)C1` [Example 93, (S)-(3-Phenoxypyrrolidin-1-yl)(5-(2,4,5-trifluoro-3-hydroxyphenyl)-1,2,4-oxadiazol-3-yl)methanone], the IC50 in series [1] stood at 0.7 µM; in series [2], 40.3 µM; in series [4] it was 1.3 µM. For the same compound, in series [3], the “Assay A: Human Heps Met Clint GMean CLint (μl/min/1E6)” value stood at 15.6 μl/min/1E6.
As for `O=C(c1noc(-c2cc(F)c(F)c(O)c2F)n1)N1CCOC2CCCC21` (centres unmarked) [Example 41, (Hexahydrocyclopenta[b][1,4]oxazin-4(4aH)-yl)(5-(2,4,5-trifluoro-3-hydroxyphenyl)-1,2,4-oxadiazol-3-yl)methanone], the results for the IC50 in series [1], in series [2] and in series [4] were 0.09 µM, 49.6 µM and 15.4 µM, respectively. Also, in series [3], the “Assay A: Human Heps Met Clint GMean CLint (μl/min/1E6)” value amounted to 5.9 μl/min/1E6.
As to `COc1ccccc1C1CCN(C(=O)c2noc(-c3cc(F)c(F)c(O)c3F)n2)C1` (centres unmarked) [Example 4, (3-(2-Methoxyphenyl)pyrrolidin-1-yl)(5-(2,4,5-trifluoro-3-hydroxyphenyl)-1,2,4-oxadiazol-3-yl)methanone], the concentration for half-maximal inhibition (IC50) in series [1] worked out at 0.08 µM; in series [2], 13 µM; in series [4] it was 0.6 µM. Besides, in series [3], the “Assay A: Human Heps Met Clint GMean CLint (μl/min/1E6)” value was determined as 47.4 μl/min/1E6.
As to `O=C(c1noc(-c2cc(F)c(F)c(O)c2F)n1)N1CCO[C@H]2CCC[C@H]21` [Example 112, ((4aR,7aS)-Hexahydrocyclopenta[b][1,4]oxazin-4(4aH)-yl)(5-(2,4,5-trifluoro-3-hydroxyphenyl)-1,2,4-oxadiazol-3-yl)methanone], the figures for the IC50 in series [1], in series [2] and in series [4] were 0.39 µM, 32.4 µM and 5.4 µM, respectively. In addition, in series [3], the “Assay A: Human Heps Met Clint GMean CLint (μl/min/1E6)” value is 7.4 μl/min/1E6.
On the same counts, the results for `O=C(c1noc(-c2cc(F)c(F)c(O)c2F)n1)N1CCCC(OCc2ccccc2)C1` (centres unmarked) [Example 94, (3-(Benzyloxy)piperidin-1-yl)(5-(2,4,5-trifluoro-3-hydroxyphenyl)-1,2,4-oxadiazol-3-yl)methanone] are 1.42 µM, above 50 µM, 1.2 µM and 17.3 μl/min/1E6.
Consider `N#Cc1cccc2c1CCN(C(=O)c1noc(-c3c(F)c(O)c(F)c(F)c3I)n1)C2` [Example 109, 2-(5-(2,4,5-Trifluoro-3-hydroxy-6-iodophenyl)-1,2,4-oxadiazole-3-carbonyl)-1,2,3,4-tetrahydroisoquinoline-5-carbonitrile], for which the IC50 in series [1] was 1.7 µM; in series [2] it was above 50 µM; in series [4] it was 14.8 µM. Moreover, the “Assay A: Human Heps Met Clint GMean CLint (μl/min/1E6)” value in series [3] was found to be 13.0 μl/min/1E6.
On the same counts, the results for `C[C@@H]1CN(C(=O)c2noc(-c3cc(F)c(F)c(O)c3F)n2)C[C@@H](C)O1` [Example 88, ((2R,6R)-2,6-Dimethylmorpholino)(5-(2,4,5-trifluoro-3-hydroxyphenyl)-1,2,4-oxadiazol-3-yl)methanone] are 0.19 µM, 41.7 µM, 16.8 µM and 3.6 μl/min/1E6.
For `C[C@@H]1CN(C(=O)c2noc(-c3cc(F)c(F)c(O)c3F)n2)[C@H](C)CO1` [Example 50, ((2R,5R)-2,5-Dimethylmorpholino)(5-(2,4,5-trifluoro-3-hydroxyphenyl)-1,2,4-oxadiazol-3-yl)methanone] the same measures were 0.22 µM, 39.5 µM, 17.2 µM and 4.3 μl/min/1E6.
Take `C[C@@H]1CN(C(=O)c2ccc(-c3cc(F)c(F)c(O)c3F)s2)C[C@H](C)O1` [Example 3, ((2R,6S)-2,6-Dimethylmorpholino)(5-(2,4,5-trifluoro-3-hydroxyphenyl)thiophen-2-yl)methanone]: the IC50 is 0.03 µM in series [1], above 50 µM in series [2] and 1.6 µM in series [4].
